pIC50: −log10 of the molar value.
Target: T1, human CCR1 (Homo sapiens, UniProt P32246)
T1 sequence (P32246 1-355): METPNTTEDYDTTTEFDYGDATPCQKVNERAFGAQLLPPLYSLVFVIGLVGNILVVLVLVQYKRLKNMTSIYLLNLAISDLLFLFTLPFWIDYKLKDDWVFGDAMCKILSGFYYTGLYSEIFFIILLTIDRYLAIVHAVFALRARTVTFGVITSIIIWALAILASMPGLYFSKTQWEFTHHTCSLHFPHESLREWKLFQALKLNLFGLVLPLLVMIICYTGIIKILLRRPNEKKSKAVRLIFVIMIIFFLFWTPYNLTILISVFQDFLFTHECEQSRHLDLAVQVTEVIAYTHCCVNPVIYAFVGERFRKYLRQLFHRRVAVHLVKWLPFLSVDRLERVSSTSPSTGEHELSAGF
Assay: CCR1 binding protocol (SPA, [125I]-MIP-1α displacement)
Conditions: cell membrane expressing human CCR1, 0.1 nM [125I]-MIP-1α, 4 hours at ambient temperature; read-out: Relative potency (IC50)
Method in brief: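 Displacement of 0.1 nM [125I]-MIP-1α (final) from membranes expressing human CCR1 was measured by scintillation proximity after 4 h at ambient temperature. Conditions: pH 7.4 Tris buffer with 0.1% BSA and MnCl, and 0.5 μg membrane per well. Compounds were tested as a 10-step ½-log series from a 10 mM DMSO stock to derive IC50.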

Compared with `Cc1nnc([C@H]2CCCN2c2c(Nc3ccc(Cl)cc3F)c(=O)c2=O)n1Cc1ccc(Cl)cc1` [Compound 536], `Cc1nnc([C@H]2CCCN2C(=O)Nc2ccc(Cl)cc2F)n1Cc1ccc(Cl)cc1` [Compound 144] is higher in pIC50: 5.30 to 6.30 for the first, > 7.30 for the second. The second is the more potent here.

`Cc1ccc([C@H](C)NC(=O)N2CCC[C@@H]2c2nnc(C)n2Cc2ccc(Cl)cc2)c(C)n1` [Compound 626] and `Cc1nnc([C@H]2CCCN2C(=O)NC(C)c2cccnc2)n1Cc1ccc(Cl)cc1` (stereo partly drawn) [Compound 139] fall in the same range of pIC50: 6.30 to 7.30 for the first, 6.30 to 7.30 for the second.

First: Cc1nnc([C@H]2CCCN2C(=O)Cc2cccc(C(F)(F)F)c2F)n1Cc1ccc(Cl)cc1 [Compound 505]
Second: Cc1nnc([C@H]2CCCN2C(=O)Cc2cc(C(F)(F)F)ccc2Cl)n1Cc1ccc(Cl)cc1 [Compound 511]
The pIC50 of the first is lower: 6.30 to 7.30 for the first, > 7.30 for the second.

`Cc1ncnc([C@H]2CCCN2C(=O)NC2(c3ccccc3)CC2)c1Cc1ccc(Cl)cc1` [Compound 26] and `Cc1nnc([C@H]2CCCN2C(=O)NC2(c3ccccc3)CC2)n1[C@@H](C)c1ccc(Cl)cc1` [Compound 351] fall in the same range of pIC50: 6.30 to 7.30 for the first, 6.30 to 7.30 for the second.

`Cc1cc(C)c(NC(=O)N2CCC[C@@H]2c2nnc(C)n2Cc2ccc(Cl)cc2)c(C)c1` [Compound 150] and `Cc1cc(C)c(S(N)(=O)=O)cc1NC(=O)N1CCC[C@@H]1c1nnc(C)n1Cc1ccc(Cl)cc1` [Compound 469] cannot be ordered by pIC50: > 7.30 for the first, > 7.30 for the second.

Compared with `Cc1nnc([C@H]2CCCN2C(=O)Nc2ccc(C(F)(F)F)nc2)n1Cc1ccc(Cl)cc1` [Compound 633], `CC[C@H](NC(=O)N1CCC[C@@H]1c1nnc(C)n1Cc1ccc(Cl)cc1)c1ccc(C(F)(F)F)nc1` [Compound 467] is higher in pIC50: 6.30 to 7.30 for the first, > 7.30 for the second. The second is the more potent here.

`Cc1nnc([C@H]2C[C@H](O)CN2C(=O)Cc2cccc(C(F)(F)F)c2)n1Cc1ccc(Cl)cc1` [Compound 499] and `Cc1nnc([C@H]2CCCN2C(=O)NCc2cccc(C(F)(F)F)c2)n1Cc1ccc(Cl)cc1` [Compound 145] fall in the same range of pIC50: 6.30 to 7.30 for the first, 6.30 to 7.30 for the second.

`Cc1cc(C)c(C(=O)N(C)C)cc1NC(=O)N1CCC[C@@H]1c1nnc(C)n1Cc1ccc(Cl)cc1` [Compound 375] and `Cc1cccc(C(=O)N(C)C)c1NC(=O)N1CCC[C@@H]1c1nnc(C)n1Cc1ccc(Cl)cc1` [Compound 233] fall in the same range of pIC50: 6.30 to 7.30 for the first, 6.30 to 7.30 for the second.

`O=C(Nc1ccc2nonc2c1)N1CCC[C@@H]1c1ncnn1Cc1ccc(Cl)cc1` [Compound 71] and `CS(=O)(=O)c1ccc(NC(=O)N2CCC[C@@H]2c2ncnn2Cc2ccc(Cl)cc2)cc1` [Compound 76] fall in the same range of pIC50: 6.30 to 7.30 for the first, 6.30 to 7.30 for the second.

First: Cc1nnc([C@H]2C[C@H](O)CN2C(=O)Nc2ccc(C(F)(F)F)nc2Cl)n1Cc1ccc(Cl)cc1 [Compound 491]
Second: COC1C[C@H](c2nnc(C)n2Cc2ccc(Cl)cc2)N(C(=O)Nc2ccc(C(F)(F)F)nc2C)C1 (stereo partly drawn) [Compound 542]
The pIC50 of the first is higher: > 7.30 for the first, 6.30 to 7.30 for the second. The first is the more potent here.

`COC(=O)c1ccc(NC(=O)N2CCC[C@@H]2c2nnc(C)n2Cc2ccc(Cl)cc2)c(C)c1` [Compound 215] and `COC(=O)c1ccc(C)c(NC(=O)N2CCC[C@@H]2c2nnc(C)n2Cc2ccc(Cl)cc2)c1` [Compound 193] cannot be ordered by pIC50: > 7.30 for the first, > 7.30 for the second.

Compared with `Cc1nc(C(F)(F)F)ccc1NC(=O)N1CCC[C@@H]1c1nnsc1Cc1ccc(Cl)cc1` [Compound 632], `Cc1nc(C(F)(F)F)ccc1N/C(=N\C#N)N1CCC[C@@H]1c1nnc(C)n1Cc1ccc(Cl)cc1` [Compound 539] is lower in pIC50: > 7.30 for the first, 6.30 to 7.30 for the second.

First: Cc1nnc([C@H]2CCCN2C(=O)N[C@@H](C)c2nc3ccccc3o2)n1Cc1ccc(Cl)cc1 [Compound 514]
Second: CC[C@H](NC(=O)N1CCC[C@@H]1c1nnc(C)n1Cc1ccc(Cl)cc1)c1cc2ccccc2o1 [Compound 117]
The pIC50 of the first is lower: 6.30 to 7.30 for the first, > 7.30 for the second. The second is the more potent here.

`Cc1nnc([C@H]2CCCN2C(=O)Nc2ccc(C#N)c(C(F)(F)F)c2)n1Cc1ccc(Cl)cc1` [Compound 525] and `Cc1nnc([C@H]2CCCN2C(=O)Nc2ccc(Cl)c(C(F)(F)F)c2)n1Cc1ccc(Br)cc1` [Compound 568] fall in the same range of pIC50: 6.30 to 7.30 for the first, 6.30 to 7.30 for the second.

`Cc1nnc([C@H]2CCCN2C(=O)Nc2cccc(Cl)c2F)n1Cc1ccc(Cl)cc1` [Compound 416] and `Cc1nnc([C@H]2CCCN2C(=O)Nc2ccc(F)cc2Cl)n1Cc1ccc(Cl)cc1` [Compound 425] cannot be ordered by pIC50: > 7.30 for the first, > 7.30 for the second.

`Cc1nnc([C@H]2CCCN2C(=O)Nc2ccc(Br)cc2C(F)(F)F)n1Cc1ccc(Cl)cc1` [Compound 197] and `Cc1nnc([C@H]2CCCN2C(=O)Nc2ccc(Br)cc2F)n1Cc1ccc(Cl)cc1` [Compound 418] cannot be ordered by pIC50: > 7.30 for the first, > 7.30 for the second.

First: Cc1nnc([C@H]2CCCN2C(=O)NC2CCOCC2)n1Cc1ccc(Cl)cc1 [Compound 333]
Second: Cc1nnc([C@H]2CCCN2C(=O)N[C@@H](C)C2CCCCC2)n1Cc1ccc(Cl)cc1 [Compound 184]
The pIC50 of the first is lower: 5.30 to 6.30 for the first, 6.30 to 7.30 for the second.

Compared with `CC(=O)N1CCC(NC(=O)N2CCC[C@@H]2c2nnc(C)n2Cc2ccc(Cl)cc2)c2ccccc21` (stereo partly drawn) [Compound 604], `Cc1nnc([C@H]2CCCN2C(=O)N[C@H]2CCOc3ccc(F)cc32)n1Cc1ccc(Cl)cc1` [Compound 157] is lower in pIC50: > 7.30 for the first, 6.30 to 7.30 for the second. The first is the more potent here.

Compared with `Cc1onc(-c2ccccc2)c1N/C(=N/C#N)N1CCC[C@@H]1c1nnc(C)n1Cc1ccc(Cl)cc1` [Compound 222], `Cc1noc(-c2ccccc2)c1NC(=O)N1CCC[C@@H]1c1nnc(Cl)n1Cc1ccc(Cl)cc1` [Compound 187] is higher in pIC50: 6.30 to 7.30 for the first, > 7.30 for the second. The second is the more potent here.

`NCc1nnc([C@H]2CCCN2C(=O)N[C@H]2CCOc3cc(C(F)(F)F)ccc32)n1Cc1ccc(Cl)cc1` [Compound 414] and `Cc1nnc([C@H]2CC(C)(O)CN2C(=O)N[C@H]2CCOc3cc(C(F)(F)F)ccc32)n1Cc1ccc(Cl)cc1` (stereo partly drawn) [Compound 526] fall in the same range of pIC50: 6.30 to 7.30 for the first, 6.30 to 7.30 for the second.

First: Cc1cc(NC(=O)N2CCC[C@@H]2c2nnc(C)n2Cc2ccc(Cl)cc2)nc(C)n1 [Compound 256]
Second: Cc1cnccc1NC(=O)N1CCC[C@@H]1c1nnc(C)n1Cc1ccc(Cl)cc1 [Compound 299]
The pIC50 of the first is lower: 5.30 to 6.30 for the first, 6.30 to 7.30 for the second.

Compared with `Cc1nnc([C@H]2C[C@H](O)CN2C(=O)NCc2ccc(Cl)cc2Cl)n1Cc1ccc(Cl)cc1` [Compound 470], `Cc1nnc(C2C3CC3CN2C(=O)Nc2ccc(Cl)cc2F)n1Cc1ccc(Cl)cc1` (stereo not drawn) [Compound 545] is lower in pIC50: > 7.30 for the first, 6.30 to 7.30 for the second.

First: CC[C@H](NC(=O)N1CCC[C@@H]1c1nnc(C)n1Cc1ccc(Cl)cc1)c1ccc(C(F)(F)F)c(F)c1 [Compound 314]
Second: CC[C@H](NC(=O)N1CCC[C@@H]1c1nnc(C)n1Cc1ccc(F)cc1)c1cc2ccccc2o1 [Compound 586]
The pIC50 of the first is lower: 6.30 to 7.30 for the first, > 7.30 for the second.

Compared with `O=C(NC1CCCOc2cccc(Cl)c21)N1CCC[C@@H]1c1ncnn1Cc1ccc(Cl)cc1` (stereo partly drawn) [Compound 87], `O=C(N[C@H]1CCCc2ccccc21)N1CCC[C@@H]1c1nnnn1Cc1ccc(Cl)cc1` [Compound 48] is higher in pIC50: 6.30 to 7.30 for the first, > 7.30 for the second.

First: Cc1ncnc([C@H]2CCCN2C(=O)Nc2c(C)noc2C)c1Cc1ccc(Cl)cc1 [Compound 19]
Second: Cc1onc(-c2ccccc2)c1NC(=O)N1CCC[C@@H]1c1ncncc1Cc1ccc(Cl)cc1 [Compound 15]
The pIC50 of the first is lower: 6.30 to 7.30 for the first, > 7.30 for the second.

Compared with `Cc1nnc([C@H]2CCCN2C(=O)NCC2CCN(S(C)(=O)=O)CC2)n1Cc1ccc(Cl)cc1` [Compound 600], `Cc1nnc([C@H]2CCCN2C(=O)Nc2cccnc2)n1Cc1ccc(Cl)cc1` [Compound 245] is lower in pIC50: 6.30 to 7.30 for the first, 5.30 to 6.30 for the second. The first is the more potent here.

First: Cc1noc(C)c1NC(=O)N1CCC[C@@H]1c1nnc(C)n1Cc1ccc(Cl)nc1 [Compound 366]
Second: Cc1noc(C)c1NC(=O)N1CCC[C@@H]1c1nnc(C)n1[C@@H](C)c1ccc(Cl)cc1 [Compound 400]
The pIC50 of the first is higher: 6.30 to 7.30 for the first, 5.30 to 6.30 for the second.

`N#C/N=C(\Nc1ccc(C(F)(F)F)cc1)N1CCC[C@@H]1c1nccn1Cc1ccc(Cl)cc1` [Compound 42] and `O=C(Nc1ccc(Cl)c(C(F)(F)F)c1)N1CCC[C@@H]1c1nccn1Cc1ccc(Cl)cc1` [Compound 41] fall in the same range of pIC50: 6.30 to 7.30 for the first, 6.30 to 7.30 for the second.

`Cc1cc(C(=O)O)ccc1NC(=O)N1CCC[C@@H]1c1nnc(C)n1Cc1ccc(Cl)cc1` [Compound 240] and `Cc1nnc([C@H]2CCCN2C(=O)Nc2ccc(Cl)cc2)n1Cc1ccc(Cl)cc1` [Compound 160] fall in the same range of pIC50: 6.30 to 7.30 for the first, 6.30 to 7.30 for the second.

`Cc1noc(C)c1CC(=O)N1C[C@@H](O)C[C@@H]1c1nnc(C)n1Cc1ccc(Cl)cc1` [Compound 630] and `Cc1nnc([C@H]2C[C@@H](O)CN2C(=O)NC(c2ccccc2)c2ccccc2)n1Cc1ccc(Cl)cc1` [Compound 389] fall in the same range of pIC50: 6.30 to 7.30 for the first, 6.30 to 7.30 for the second.

`Cc1nnc([C@H]2CCCN2C(=O)NC2(c3ccc(F)cc3)CC2)n1Cc1ccc(Cl)cc1` [Compound 270] and `Cc1nnc([C@H]2CCCN2C(=O)NC2(c3ccccc3F)CC2)n1Cc1ccc(Cl)cc1` [Compound 273] cannot be ordered by pIC50: > 7.30 for the first, > 7.30 for the second.

First: Cc1cc(NC(=O)N2CCC[C@@H]2c2nnc(C)n2Cc2ccc(Cl)cc2)n(-c2ccccc2)n1 [Compound 341]
Second: Cc1nnc([C@H]2CCCN2C(=O)Nc2cc(-c3ccc(Cl)cc3)nn2C)n1Cc1ccc(Cl)cc1 [Compound 595]
The pIC50 of the first is higher: > 7.30 for the first, 6.30 to 7.30 for the second. The first is the more potent here.

First: O=C(Nc1ccc(C(F)(F)F)cc1)N1CCC[C@@H]1c1nnnn1Cc1ccc(Cl)cc1 [Compound 53]
Second: Cc1nnc([C@H]2CCCN2C(=O)Nc2ccc3c(c2)OCC(=O)N3C)n1Cc1ccc(Cl)cc1 [Compound 339]
The pIC50 of the first is higher: > 7.30 for the first, 5.30 to 6.30 for the second. The first is the more potent here.

Compared with `Cc1nc(C(F)(F)F)ccc1NC(=O)N1CC(C)(O)C[C@@H]1c1nnc(C)n1Cc1ccc(Cl)cc1` (stereo partly drawn) [Compound 517], `Cc1nnc([C@H]2CCCN2C(=O)Nc2c(Cl)ncnc2Cl)n1Cc1ccc(Cl)cc1` [Compound 201] is higher in pIC50: 6.30 to 7.30 for the first, > 7.30 for the second. The second is the more potent here.

`Cc1ncc(Cc2ccc(Cl)cc2)c([C@H]2CCCN2C(=O)Nc2c(C)noc2-c2ccccc2)n1` [Compound 21] was tested, and the pIC50 was 6.30 to 7.30.
